pEC50: −log10 of the molar value.
Biological target: T1, GPR119 (Homo sapiens, UniProt Q8TDV5)
T1 construct: host or cells: CHO-K1 (CRE-bla reporter, doxycycline-induced)
T1 sequence (Q8TDV5 1-335): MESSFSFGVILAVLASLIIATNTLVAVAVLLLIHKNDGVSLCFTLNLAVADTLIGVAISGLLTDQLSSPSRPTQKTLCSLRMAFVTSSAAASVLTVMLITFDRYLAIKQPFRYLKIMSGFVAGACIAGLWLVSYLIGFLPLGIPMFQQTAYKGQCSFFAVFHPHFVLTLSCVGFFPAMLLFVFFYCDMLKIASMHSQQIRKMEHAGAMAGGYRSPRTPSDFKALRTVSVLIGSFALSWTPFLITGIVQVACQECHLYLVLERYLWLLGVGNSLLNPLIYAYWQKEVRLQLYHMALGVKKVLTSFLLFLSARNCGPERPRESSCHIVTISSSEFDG
Test: Controlling Effect of GPR119 in CRE-bla CHO-K1 Cells (EC50)
Format: cell-based
Settings: GPR119 CRE-bla CHO-K1 cell line, 5 hr incubation with compound, β-lactamase LiveBLAzer-FRET B/G readout; read-out: controlling effect against GPR119 in CRE-bla CHO-K1 cell line (EC50)
Protocol: Controlling Effect of GPR119 in CRE-bla CHO-K1 Cells (EC50)
The day before the experiment, GPR119 CRE-bla CHO-K1 cell line purchased from Invitrogen was seeded in a 96 black well plate in an amount of 80 μl at a density of 5×10^4 cells. After the seeding, 10 μl of doxycycline in a concentration of 1 μg/ml was added to each well and incubated in an incubator at 37° C. under 5% CO2 for about 16 to 20 hr.
The day of experiment, sample compounds were performed a 10-fold serial dilution with a culture medium at various concentrations of 1 uM to […]. Considering that the culture medium used in the seeding and doxycycline are together applied, the sample compounds were diluted to a 5-fold dilution of the planned concentration. 20 μl of the compound diluted with the culture medium was added to each well and incubated in the incubator for 5 hr. The compound-untreated group was added with 20 μl of 0.5% dimethyl sulfoxide (DMSO) diluted with the culture medium. After 5 hr from the incubation, substrate mixture of a 6-fold concentration were prepared; 6 μl of 1 mM LiveBLAzer™-FRET B/G(CCF4-AM) substrate, 60 μl of solution B, 904 μl of solution C and 30 μl of solution D. 12 μl of the substrate mixture was added to each well and allowed to be kept at room temperature for 2 hr with shading the light. Fluorescence intensity value of blue channel and green channel was determined by a fluorescence microplate reader at 409 nm/460 nm and 409 nm/[…] (excitation/emission), respectively. In order to confirm the controlling effect of the inventive compounds against GPR119, EC50 (half maximal effective concentration) was determined based on the determined values. EC50, the concentration at which 50% activity of β-lactamase, was determined according to the following Equation: Equation=[(Ti−Tz)/(C−Tz)]×100
[Wherein, Ti: Cell density of the compound-treated group; Tz: Cell density of the negative control group; and C: Cell density of the positive control group]

pEC50 | SMILES
> 7.00 | CCc1cnc(N2CCC(Oc3ncnc4c(-c5ccc(S(C)(=O)=O)cc5F)cn(C)c34)CC2)nc1 [Example 29, 4-(1-(5-ethylpyrimidin-2-yl)piperidin-4-yloxy)-7-(2-fluoro-4-methanesulfonyl-phenyl)-5-methyl-5H-pyrrolo[3,2-d]pyrimidine]
> 7.00 | CCCc1cnc(N2CCC(Oc3ncnc4c(-c5ccc(S(C)(=O)=O)cc5F)cn(C)c34)CC2)nc1 [Example 30]
> 7.00 | CCc1cnc(N2CCC(Oc3ncnc4c(-c5ccc(S(C)(=O)=O)cc5)cn(CC)c34)CC2)nc1 [Example 32, 5-ethyl-4-(1-(5-ethylpyrimidin-2-yl)piperidin-4-yloxy)-7-(4-methanesulfonyl-phenyl)-5H-pyrrolo[3,2-d]pyrimidine]
> 7.00 | CCc1cnc(N2CCC(Oc3ncnc4c(-c5ccc(S(C)(=O)=O)cc5F)cn(CC)c34)CC2)nc1 [Example 33, 5-ethyl-4-(1-(5-ethylpyrimidin-2-yl)piperidin-4-yloxy)-7-(2-fluoro-4-methanesulfonyl-phenyl)-5H-pyrrolo[3,2-d]pyrimidine]
> 7.00 | CCCc1cnc(N2CCC(Oc3ncnc4c(-c5ccc(S(C)(=O)=O)cc5F)cn(CC)c34)CC2)nc1 [Example 34, 5-ethyl-7-(2-fluoro-4-methanesulfonyl-phenyl)-4-(1-(5-propylpyrimidin-2-yl)piperidin-4-yloxy)-5H-pyrrolo[3,2-d]pyrimidine]
> 7.00 | CC(C)c1noc(N2CCC(Oc3ncnc4c(-c5ccc(S(C)(=O)=O)cc5)cn(C)c34)CC2)n1 [Example 35, 3-isopropyl-5-(4-(5-methyl-7-(4-methanesulfonyl-phenyl)-5H-pyrrolo[3,2-d]pyrimidin-4-yloxy)piperidin-1-yl)-1,2,4-oxadiazole]
6.00 to 7.00 | CCc1cnc(N2CC[C@H](Oc3ncnc4c(-c5ccc(S(C)(=O)=O)cc5)cn(C)c34)C2)nc1 [Example 39, 4-[1-(5-ethylpyrimidin-2-yl)-pyrrolidin-3-yloxy]-7-(4-methanesulfonyl-phenyl)-5-methyl-5H-pyrrolo[3,2-d]pyrimidine]
< 6.00 | CCc1cnc(N2CCC(Oc3ncnc4c(-c5ccc(C#N)cc5)cn(C)c34)CC2)nc1 [Example 43, 4-{4-[1-(5-ethylpyrimidin-2-yl)-piperidin-4-yloxy]-5-methyl-5H-pyrrolo[3,2-d]pyrimidin-7-yl}-benzonitrile]
6.00 to 7.00 | CCc1cnc(N2CCC(Oc3ncnc4c(-c5ccc(C(C)=O)cc5)cn(C)c34)CC2)nc1 [Example 44, 1-(4-{4-[1-(5-ethylpyrimidin-2-yl)-piperidin-4-yloxy]-5-methyl-5H-pyrrolo[3,2-d]pyrimidin-7-yl}-phenyl)-ethanone]
< 6.00 | CCc1cnc(N2CCC(Oc3ncnc4c(-c5ccc(F)nc5)cn(C)c34)CC2)nc1 [Example 48, 4-(1-(5-ethylpyrimidin-2-yl)piperidin-4-yloxy)-7-(6-fluoropyridin-3-yl)-5-methyl-5H-pyrrolo[3,2-d]pyrimidine]
6.00 to 7.00 | CCc1cnc(N2CCC(COc3ncnc4c(-c5ccc(S(C)(=O)=O)cc5)cn(C)c34)CC2)nc1 [Example 49, 4-((1-(5-ethylpyrimidin-2-yl)piperidin-4-yl)methoxy)-5-methyl-7-(4-methanesulfonyl-phenyl)-5H-pyrrolo[3,2-d]pyrimidine]
> 7.00 | CCc1cnc(N2CCC(Oc3ncnc4c(-c5ccc(S(C)(=O)=O)cc5)csc34)CC2)nc1 [Example 55, 4-(1-(5-ethylpyrimidin-2-yl)piperidin-4-yloxy)-7-(4-methanesulfonyl-phenyl)thieno[3,2-d]pyrimidine]

The remaining lines, values behind:

SMILES | pEC50
Cn1cc(-c2ccc(S(C)(=O)=O)cc2F)c2ncnc(OC3CCN(c4ncc(C(F)(F)F)cn4)CC3)c21 [Example 31, 7-(2-fluoro-4-methanesulfonyl-phenyl)-5-methyl-4-(1-(5-(trifluoromethyl)pyrimidin-2-yl)piperidin-4-yloxy)-5H-pyrrolo[3,2-d]pyrimidine] | > 7.00
CC(C)c1noc(N2CCC(Oc3ncnc4c(-c5ccc(S(C)(=O)=O)cc5F)cn(C)c34)CC2)n1 [Example 36, 5-(4-(7-(2-fluoro-4-methanesulfonyl-phenyl)-5-methyl-5H-pyrrolo[3,2-d]pyrimidin-4-yloxy)piperidin-1-yl)-3-isopropyl-1,2,4-oxadiazole] | > 7.00
CCn1cc(-c2ccc(S(C)(=O)=O)cc2F)c2ncnc(OC3CCN(c4nc(C(C)C)no4)CC3)c21 [Example 37, 5-(4-(5-ethyl-7-(2-fluoro-4-methanesulfonyl-phenyl)-5H-pyrrolo[3,2-d]pyrimidin-4-yloxy)piperidin-1-yl)-3-isopropyl-1,2,4-oxadiazole] | > 7.00
CC(C)c1noc(N2CC[C@H](Oc3ncnc4c(-c5ccc(S(C)(=O)=O)cc5)cn(C)c34)C2)n1 [Example 38, 4-[1-(3-isopropyl-[1,2,4]oxadiazol-5-yl)-pyrrolidin-3-yloxy]-7-(4-methanesulfonyl-phenyl)-5-methyl-5H-pyrrolo[3,2-d]pyrimidine] | < 6.00
Cn1cc(-c2ccc(S(C)(=O)=O)cc2)c2ncnc(OC3CCN(C(=O)NC(C)(C)C)CC3)c21 [Example 40, 4-[7-(4-methanesulfonyl-phenyl)-5-methyl-5H-pyrrolo[3,2-d]pyrimidin-4-yloxy]piperidin-1-carboxylic acid tert-butylamide] | 6.00 to 7.00
CC(C)c1noc(N2CCC(Oc3ncnc4c(-c5ccc(N)cc5)cn(C)c34)CC2)n1 [Example 41, 4-(4-(1-(3-isopropyl-1,2,4-oxadiazol-5-yl)piperidin-4-yloxy)-5-methyl-5H-pyrrolo[3,2-d]piperidin-7-yl)benzenamine] | < 6.00
CC(C)c1noc(N2CCC(Oc3ncnc4c(-c5ccc([N+](=O)[O-])cc5)cn(C)c34)CC2)n1 [Example 42, 3-isopropyl-5-(4-(5-methyl-7-(4-nitrophenyl)-5H-pyrrolo[3,2-d]pyrimidin-4-yloxy)piperidin-1-yl)-1,2,4-oxadiazole] | < 6.00
CC(C)N1CCC(Oc2ncnc3c(-c4ccc(S(C)(=O)=O)cc4)cn(C)c23)CC1 [Example 45, 4-(1-isopropyl-piperidin-4-yloxy)-7-(4-methanesulfonyl-phenyl)-5-methyl-5H-pyrrolo[3,2-d]pyrimidine] | 6.00 to 7.00
Cn1cc(-c2ccc(S(C)(=O)=O)cc2)c2ncnc(OC3CCN(C(=O)C(C)(C)C)CC3)c21 [Example 46, 1-{4-[7-(4-methanesulfonyl-phenyl)-5-methyl-5H-pyrrolo[3,2-d]pyrimidin-4-yloxy]-piperidin-1-yl}-2,2-dimethynyl-propan-1-one] | 6.00 to 7.00
Cn1cc(-c2ccc(F)nc2)c2ncnc(OC3CCN(C(=O)OC(C)(C)C)CC3)c21 [Example 47, tert-butyl 4-(7-(6-fluoropyridin-3-yl)-5-methyl-5H-pyrrolo[3,2-d]pyrimidin-4-yloxy)piperidine-1-carboxylate] | < 6.00
CC(C)(C)OC(=O)N1CCC(Oc2ncnc3c(-c4ccc(S(C)(=O)=O)cc4)csc23)CC1 [Example 50, tert-butyl 4-(7-(4-methanesulfonyl-phenyl)thieno[3,2-d]pyrimidin-4-yloxy)piperidine-1-carboxylate] | > 7.00
CC(C)c1noc(N2CCC(Oc3ncnc4c(-c5ccc(S(C)(=O)=O)cc5)csc34)CC2)n1 [Example 51] | > 7.00
CS(=O)(=O)c1ccc(-c2csc3c(OC4CCN(c5nc(CC6CC6)no5)CC4)ncnc23)cc1 [Example 52, 3-(cyclopropylmethyl)-5-(4-(7-(4-methanesulfonyl-phenyl)thieno[3,2-d]pyrimidin-4-yloxy)piperidin-1-yl)-1,2,4-oxadiazole] | > 7.00
CC(C)(C)c1noc(N2CCC(Oc3ncnc4c(-c5ccc(S(C)(=O)=O)cc5)csc34)CC2)n1 [Example 53, 3-tert-butyl-5-(4-(7-(4-methanesulfonyl-phenyl)thieno[3,2-d]pyrimidin-4-yloxy)piperidin-1-yl)-1,2,4-oxadiazole] | > 7.00
CS(=O)(=O)c1ccc(-c2csc3c(OC4CCN(c5nc(C6CCC6)no5)CC4)ncnc23)cc1 [Example 54, 3-cyclobutyl-5-(4-(7-(4-methanesulfonyl-phenyl)thieno[3,2-d]pyrimidin-4-yloxy)piperidin-1-yl)-1,2,4-oxadiazole] | > 7.00
